Assay results from patent US12721838B2 (Henry Ford Health System, priority 2020, dated 2026).
Entries after “also recorded” stand apart in the source; their conditions may differ.

Target: T1, Trib2-Luciferase (Luc-Trib2) fusion (Homo sapiens, UniProt Q92519)
T1 sequence (Q92519 with tags, fused parts or gaps): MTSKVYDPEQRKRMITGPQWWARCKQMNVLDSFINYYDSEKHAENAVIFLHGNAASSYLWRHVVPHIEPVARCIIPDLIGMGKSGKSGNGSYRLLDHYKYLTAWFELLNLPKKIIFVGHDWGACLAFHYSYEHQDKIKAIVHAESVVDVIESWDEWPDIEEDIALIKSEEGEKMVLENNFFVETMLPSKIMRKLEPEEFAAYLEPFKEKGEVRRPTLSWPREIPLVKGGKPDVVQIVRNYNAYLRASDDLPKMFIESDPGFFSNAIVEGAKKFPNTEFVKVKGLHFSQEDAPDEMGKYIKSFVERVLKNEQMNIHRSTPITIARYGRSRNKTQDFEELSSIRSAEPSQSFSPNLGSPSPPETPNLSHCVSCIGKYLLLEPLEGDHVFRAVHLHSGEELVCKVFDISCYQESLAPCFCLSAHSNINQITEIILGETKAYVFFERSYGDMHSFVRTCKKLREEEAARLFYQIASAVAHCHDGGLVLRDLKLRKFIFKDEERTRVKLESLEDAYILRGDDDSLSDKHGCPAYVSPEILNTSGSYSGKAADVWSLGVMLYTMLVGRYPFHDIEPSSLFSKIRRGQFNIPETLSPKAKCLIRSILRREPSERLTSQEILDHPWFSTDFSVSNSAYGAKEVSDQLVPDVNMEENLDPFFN
Assay: cell-based
Conditions: HFF, read-out: Luciferase activity (%)

Molecule	activity at 10 µM [%]
Nc1nc2c(ncn2CCC(CO)CO)c(=O)[nH]1 [Penciclovir]	97
Cc1ccccc1C(=O)Nc1ccc(C(=O)N2CCCC(N(C)C)c3ccccc32)cc1 (stereo not shown) [Mozavaptan]	86
COc1cc(N)c(Cl)cc1C(=O)NC1CCN(Cc2ccccc2)CC1 [Clebopride]	100
CS(=O)(=O)OCCCCOS(C)(=O)=O [Busulfan]	100
Cc1cc(-c2ccccc2)nnc1NCCN1CCOCC1 [Minaprine]	79
CCOC(=O)OC(C)OC1=C(C(=O)Nc2ccccn2)N(C)S(=O)(=O)c2ccccc21 (stereo not shown) [Ampiroxicam]	28
CN(C)C(=O)Oc1ccc[n+](C)c1 [Pyridostigmine]	76
COc1ccc2c(c1OC)C(=O)O[C@@H]2[C@H]1c2c(cc3c(c2OC)OCO3)CCN1C [Noscapine]	100
COc1ccccc1OCC(O)CN1CCN(CC(=O)Nc2c(C)cccc2C)CC1 (stereo not shown) [Ranolazine]	100
CCOC(=O)c1cncn1[C@H](C)c1ccccc1 [Etomidate]	100
C[C@@H]1CCO[C@H]2Cn3cc(C(=O)NCc4ccc(F)cc4F)c(=O)c(O)c3C(=O)N12 [Dolutegravir]	100
O=C(O)CCNC(=O)c1ccccc1 [Betamipron]	87
Cc1cn(-c2cc(NC(=O)c3ccc(C)c(Nc4nccc(-c5cccnc5)n4)c3)cc(C(F)(F)F)c2)cn1 [Nilotinib]	99
CC[C@@H](CO)NCCN[C@@H](CC)CO [Ethambutol]	98
CC[C@H]1OC(=O)[C@H](C)[C@@H](O[C@H]2C[C@@](C)(OC)[C@@H](O)[C@H](C)O2)[C@H](C)[C@@H](O[C@@H]2O[C@H](C)C[C@H](N(C)C)[C@H]2O)[C@](C)(O)C[C@@H](C)[C@@H]2N[C@@H](COCCOC)O[C@H]([C@H]2C)[C@]1(C)O [Dirithromycin]	100
CC(C)CN(C[C@@H](O)[C@H](Cc1ccccc1)NC(=O)O[C@H]1CO[C@H]2OCC[C@H]21)S(=O)(=O)c1ccc(N)cc1 [Darunavir]	93
CCN(CC)C(=O)C1(c2ccccc2)CC1CN (stereo not shown) [Milnacipran]	85
CC(=O)OC(C)C[N+](C)(C)C (stereo not shown) [Methacholine]	99
OB1OCc2cc(F)ccc21 [Tavaborole]	75
CC(C)C(=O)c1c(C(C)C)nn2ccccc12 [Ibudilast]	85
CC(/C=C1\SC(=S)N(CC(=O)O)C1=O)=C\c1ccccc1 [Epalrestat]	53
C=CCc1ccccc1OCC(O)CNC(C)C (stereo not shown) [Alprenolol]	91
Cc1cnc(NC(=O)C2=C(O)c3ccccc3S(=O)(=O)N2C)s1 [Meloxicam]	100
CCOC(=O)[C@@H](N)Cc1ccc(-c2cc(O[C@H](c3ccc(Cl)cc3-n3ccc(C)n3)C(F)(F)F)nc(N)n2)cc1 [Telotristat etiprate]	94

Target: T1, Trib2-Luciferase (Luc-Trib2) fusion
Assay: not given
Conditions: 10 µM

Molecule	Luciferase activity (%)
CC[C@H]1[C@@H]2C[C@H]3[C@@H]4N(C)c5ccccc5[C@]45C[C@@H]([C@@H]2[C@H]5O)N3[C@@H]1O [Ajamaline]	93
Temsirolmus	94
NS(=O)(=O)c1cc(Cl)c(Cl)c(S(N)(=O)=O)c1 [Dichlorphrnamide]	100
Niraparib tosylate	93
COC(=O)[C@H]1[C@H]2C[C@@H]3c4[nH]c5cc(OC)ccc5c4CCN3C[C@H]2C[C@@H](OC(=O)c2cc(OC)c(OC)c(OC)c2)[C@@H]1OC [Resperine]	91

Same assay, conditions: 10 μM, 24 hours, HFF-Trib2-Luc cells

Molecule	inhibition of Trib2-luciferase activity (in words)
Nc1nc2c(ncn2CCC(CO)CO)c(=O)[nH]1 [Penciclovir]	not effective
C[C@@H]1CCO[C@H]2Cn3cc(C(=O)NCc4ccc(F)cc4F)c(=O)c(O)c3C(=O)N12 [Dolutegravir]	completely ineffective; also recorded: not effective
CC(C)CN(C[C@@H](O)[C@H](Cc1ccccc1)NC(=O)O[C@H]1CO[C@H]2OCC[C@H]21)S(=O)(=O)c1ccc(N)cc1 [Darunavir]	completely ineffective; also recorded: not effective

Same assay, conditions: 10 μM, 24 hours; Trib2-Luciferase fusion construct-transfected HFF cells; […]

Molecule	Luciferase activity (%)
CC(=O)NCCCCCC(=O)O [6-Acetamidohexanoic]	100
Nc1ccc(O)c(C(=O)O)c1 [5-Aminosalicyclic acid]	84
